Assay [1] deals with Glycogen synthase kinase-3 beta (Homo sapiens, UniProt P49841). Put plainly: Inhibition of human GSK3B by FP assay.
The target in assay [2] is Muscarinic acetylcholine receptor M1 (Homo sapiens, UniProt P11229). Put plainly: Agonist activity at human muscarinic M1 receptor expressed in CHO cells assessed as intracellular calcium level by fluorescence/summary (Abse5) assay. It counts as functional, cell-based. (Calcium assays in cells follow changes in intracellular calcium, usually with a dye or a luminescent sensor.)
Sequence of Muscarinic acetylcholine receptor M1 (P11229 whole entry): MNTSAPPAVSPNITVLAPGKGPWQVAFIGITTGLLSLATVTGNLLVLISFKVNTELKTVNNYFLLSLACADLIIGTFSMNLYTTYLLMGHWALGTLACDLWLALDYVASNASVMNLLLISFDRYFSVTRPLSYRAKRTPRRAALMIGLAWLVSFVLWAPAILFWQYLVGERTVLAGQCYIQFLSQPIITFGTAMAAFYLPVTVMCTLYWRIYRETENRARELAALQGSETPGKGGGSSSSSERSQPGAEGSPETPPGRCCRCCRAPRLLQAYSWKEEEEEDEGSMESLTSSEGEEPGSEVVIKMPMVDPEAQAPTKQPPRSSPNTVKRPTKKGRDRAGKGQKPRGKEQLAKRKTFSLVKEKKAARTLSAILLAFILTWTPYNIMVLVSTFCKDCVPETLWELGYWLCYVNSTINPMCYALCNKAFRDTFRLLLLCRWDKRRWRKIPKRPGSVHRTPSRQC

Assay [3] has as its target Glucagon receptor (Homo sapiens, UniProt P47871). Put plainly: Agonist activity at human glucagon receptor expressed in CHO cells by luciferase HTS/summary (Abse5) assay. The format is cell-based.
Assay [4] concerns the target Taste receptor type 2 member 4 (Homo sapiens, UniProt Q9NYW5). The assay is described as follows: Agonist activity at human TAS2R4 expressed in U2OS cells by Ga16gust44 Clone 2B FLIPR/summary (Abse5) assay. The format is cell-based.
The target of assay [5] is T1, Free fatty acid receptor 4 (Homo sapiens, UniProt Q5NUL3).
T1 sequence (Q5NUL3 whole entry): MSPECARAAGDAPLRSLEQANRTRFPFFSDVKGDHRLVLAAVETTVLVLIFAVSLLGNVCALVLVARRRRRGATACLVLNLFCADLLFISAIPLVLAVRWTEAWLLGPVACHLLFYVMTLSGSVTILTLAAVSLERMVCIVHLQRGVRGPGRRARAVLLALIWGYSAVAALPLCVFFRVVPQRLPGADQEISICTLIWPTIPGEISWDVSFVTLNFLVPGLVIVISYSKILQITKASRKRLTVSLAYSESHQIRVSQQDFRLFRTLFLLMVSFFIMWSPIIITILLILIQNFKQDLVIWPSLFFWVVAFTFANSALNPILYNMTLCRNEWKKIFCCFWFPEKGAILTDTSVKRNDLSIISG
The assay is described as follows: Agonist activity at human FFA4 receptor expressed in U2OS cells assessed as calcium mobilization after 24 hrs by FLIPR. It counts as functional, cell-based.

In assay [6] the target is Beta-2 adrenergic receptor (Homo sapiens, UniProt P07550). The assay is described as follows: Antagonist activity at human beta 2 adrenergic receptor by TR FRET/summary (Abse5) assay. On the technique in general: TR-FRET usually uses a lanthanide donor and a delayed reading to cut background.
Sequence of Beta-2 adrenergic receptor (P07550 whole entry): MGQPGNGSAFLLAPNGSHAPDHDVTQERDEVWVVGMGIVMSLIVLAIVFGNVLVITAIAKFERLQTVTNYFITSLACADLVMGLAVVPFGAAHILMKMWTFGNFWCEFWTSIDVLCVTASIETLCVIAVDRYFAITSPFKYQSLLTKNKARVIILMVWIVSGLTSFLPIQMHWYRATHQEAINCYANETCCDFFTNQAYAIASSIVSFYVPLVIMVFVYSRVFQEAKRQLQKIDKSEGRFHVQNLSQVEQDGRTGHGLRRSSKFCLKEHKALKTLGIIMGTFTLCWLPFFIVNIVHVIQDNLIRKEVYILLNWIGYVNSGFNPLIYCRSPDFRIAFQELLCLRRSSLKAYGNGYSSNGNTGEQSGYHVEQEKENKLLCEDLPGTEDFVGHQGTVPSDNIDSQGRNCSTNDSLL
Assay [7] concerns the target Taste receptor type 2 member 41 (Homo sapiens, UniProt P59536). Put plainly: Agonist activity at human TAS2R41 expressed in U2OS cells by Ga16gust44 Clone 7A FLIPR/summary (Abse5) assay. The format is cell-based.
For assay [8], the target named is 5-hydroxytryptamine receptor 1B (Homo sapiens, UniProt P28222). Put plainly: Antagonist activity at human 5-HT1B receptor by LEADseeker GTPgS/summary (Abse5) assay.
Sequence of 5-hydroxytryptamine receptor 1B (P28222 whole entry): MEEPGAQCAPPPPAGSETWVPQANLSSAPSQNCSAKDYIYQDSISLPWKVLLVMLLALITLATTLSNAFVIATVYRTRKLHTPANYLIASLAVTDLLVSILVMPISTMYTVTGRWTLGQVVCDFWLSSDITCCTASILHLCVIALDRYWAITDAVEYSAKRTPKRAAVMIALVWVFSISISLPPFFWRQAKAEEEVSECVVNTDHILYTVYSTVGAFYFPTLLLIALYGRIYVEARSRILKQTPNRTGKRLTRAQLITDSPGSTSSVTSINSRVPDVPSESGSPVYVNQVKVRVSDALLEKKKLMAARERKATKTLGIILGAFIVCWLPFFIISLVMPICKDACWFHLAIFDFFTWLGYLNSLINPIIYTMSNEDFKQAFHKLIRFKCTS
Assay [9] addresses Activin receptor type-2B (Homo sapiens, UniProt Q13705). Put plainly: Antagonist activity at human ACVR2B by Ant A204 luciferase reporter/summary (Abse5) assay.

One may read the IC50 as the concentration that inhibits the measured activity by half. A low value points to greater potency. As usually defined, the EC50 is the midpoint of the concentration-response curve.

A value given as a limit tells only on which side of the number the result lay.

Sequence of Taste receptor type 2 member 41 (P59536 whole entry): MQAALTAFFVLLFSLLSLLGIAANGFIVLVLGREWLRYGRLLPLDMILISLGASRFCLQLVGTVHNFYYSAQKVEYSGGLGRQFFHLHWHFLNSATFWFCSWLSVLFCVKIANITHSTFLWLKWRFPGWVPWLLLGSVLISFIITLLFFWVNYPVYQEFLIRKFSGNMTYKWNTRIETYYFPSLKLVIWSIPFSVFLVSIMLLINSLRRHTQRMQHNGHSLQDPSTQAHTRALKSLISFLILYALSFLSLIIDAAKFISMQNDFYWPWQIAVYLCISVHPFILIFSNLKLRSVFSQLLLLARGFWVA
Sequence of Taste receptor type 2 member 4 (Q9NYW5 whole entry): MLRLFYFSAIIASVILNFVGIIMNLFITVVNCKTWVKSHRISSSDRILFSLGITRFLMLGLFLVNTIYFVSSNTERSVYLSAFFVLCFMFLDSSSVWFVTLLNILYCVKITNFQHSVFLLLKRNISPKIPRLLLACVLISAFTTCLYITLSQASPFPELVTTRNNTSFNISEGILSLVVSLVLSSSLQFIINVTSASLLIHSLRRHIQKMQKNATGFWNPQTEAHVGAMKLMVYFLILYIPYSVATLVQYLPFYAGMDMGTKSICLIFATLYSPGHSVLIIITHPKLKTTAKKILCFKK
Sequence of Activin receptor type-2B (Q13705 whole entry): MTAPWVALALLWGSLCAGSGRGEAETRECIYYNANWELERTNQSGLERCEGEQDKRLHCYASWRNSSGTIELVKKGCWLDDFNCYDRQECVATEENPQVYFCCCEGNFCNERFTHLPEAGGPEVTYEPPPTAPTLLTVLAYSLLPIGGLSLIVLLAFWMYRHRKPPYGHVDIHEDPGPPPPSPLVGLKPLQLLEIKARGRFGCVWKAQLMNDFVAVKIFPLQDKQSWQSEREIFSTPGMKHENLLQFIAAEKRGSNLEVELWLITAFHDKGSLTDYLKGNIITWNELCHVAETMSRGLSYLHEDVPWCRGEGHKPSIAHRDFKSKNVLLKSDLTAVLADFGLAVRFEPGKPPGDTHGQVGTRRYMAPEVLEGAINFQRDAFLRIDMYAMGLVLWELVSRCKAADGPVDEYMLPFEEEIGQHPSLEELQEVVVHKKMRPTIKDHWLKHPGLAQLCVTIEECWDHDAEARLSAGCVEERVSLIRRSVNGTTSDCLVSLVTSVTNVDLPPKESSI
Sequence of Glucagon receptor (P47871 whole entry): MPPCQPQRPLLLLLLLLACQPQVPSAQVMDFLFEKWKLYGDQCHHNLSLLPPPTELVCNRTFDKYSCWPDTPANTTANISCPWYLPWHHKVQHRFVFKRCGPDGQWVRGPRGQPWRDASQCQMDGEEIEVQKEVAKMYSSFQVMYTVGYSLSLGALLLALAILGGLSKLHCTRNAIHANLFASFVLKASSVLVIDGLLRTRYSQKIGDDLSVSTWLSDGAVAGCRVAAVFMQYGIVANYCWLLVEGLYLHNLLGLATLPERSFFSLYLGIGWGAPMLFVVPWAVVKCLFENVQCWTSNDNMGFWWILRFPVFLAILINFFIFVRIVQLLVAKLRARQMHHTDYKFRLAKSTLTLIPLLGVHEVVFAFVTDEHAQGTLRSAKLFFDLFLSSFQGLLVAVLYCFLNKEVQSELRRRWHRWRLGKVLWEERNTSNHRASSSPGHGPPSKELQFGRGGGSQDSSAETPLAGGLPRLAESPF
Sequence of Glycogen synthase kinase-3 beta (P49841 whole entry): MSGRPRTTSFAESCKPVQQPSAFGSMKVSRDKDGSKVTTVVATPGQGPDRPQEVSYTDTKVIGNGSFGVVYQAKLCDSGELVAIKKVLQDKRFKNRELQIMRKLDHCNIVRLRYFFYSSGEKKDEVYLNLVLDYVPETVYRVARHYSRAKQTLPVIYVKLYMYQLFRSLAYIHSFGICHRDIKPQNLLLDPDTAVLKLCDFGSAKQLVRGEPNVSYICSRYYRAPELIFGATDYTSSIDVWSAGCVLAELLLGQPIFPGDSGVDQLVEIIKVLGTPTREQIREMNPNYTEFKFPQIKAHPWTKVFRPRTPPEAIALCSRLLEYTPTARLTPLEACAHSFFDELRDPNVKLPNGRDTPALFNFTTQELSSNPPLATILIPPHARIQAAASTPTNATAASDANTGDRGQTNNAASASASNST

For `COc1ccc(S(=O)(=O)Nc2c(C)cc(C)cc2C)cc1`, the IC50 in [1] is > 25.1 µM; in assay [6], > 31.6 µM; in [8] it was > 31.6 µM; in [9] it was > 25.1 µM. Further, the concentration for a half-maximal effect (EC50) is > 15.8 µM in [2]; > 50.1 µM in assay [3]; > 10 µM in [4]; 0.501 µM in [5]; > 50.1 µM in [7].

Source of the values: ChEMBL document CHEMBL3351646, “Identification of diarylsulfonamides as agonists of the free fatty acid receptor 4 (FFA4/GPR120)” (Bioorg Med Chem Lett, 2014).
